For 28 molecules, inhibition of growth and pest or weed control results are on record in US20260271933A1 (priority 2023, published 2026).

For assay [1], the system named is Pythium ultimum. Put plainly: Pythium ultimum / liquid culture (seedling damping off). Format: cell-based. As to conditions: Globisporangium ultimum, growth inhibition determined photometrically, compared to untreated control. The procedure: Pythium ultimum/Liquid Culture (Seedling Damping Off)
Mycelia fragments and oospores of a newly grown liquid culture of the fungus are directly mixed into nutrient broth (PDB potato dextrose broth). After placing a (DMSO) solution of test compound into a microtiter plate (96-well format), the nutrient broth containing the fungal mycelia/spore mixture is added.
The test plates are incubated at 24° C. and the inhibition of growth is determined photometrically 2-3 days after application.

Assay [2] relates to Phytophthora infestans. Put plainly: whole plant or invertebrate. Format: in vivo. The following applies: in Solanum lycopersicum, foliar, read-out: control of Phytophthora infestans.
In assay [3] the test system is Plasmopara viticola. Put plainly: whole plant or invertebrate. As to conditions: foliar. Format: in vivo.

In general, inhibition of growth refers to the relative decrease from the control value, in per cent.

In turn, `COC(=O)Nc1ccc(-c2cnc3ccc(C(=O)N(C)c4cc(Cl)ccc4C)cn23)cn1` [Compound 47, methyl N-[5-[6-[(5-chloro-2-methyl-phenyl)-methyl-carbamoyl]imidazo[1,2-a]pyridin-3-yl]-2-pyridyl]carbamate] came in with an inhibition of growth at 20 ppm in assay [1] of at least 80%.

Molecule `COC(=O)Nc1ccc(-c2cnc3ccc(C(=O)N4CC(O)Cc5cc(F)ccc54)cn23)cn1` (stereo not drawn) [Compound 24, methyl N-[5-[6-(6-fluoro-3-hydroxy-3,4-dihydro-2H-quinoline-1-carbonyl)imidazo[1,2-a]pyridin-3-yl]-2-pyridyl]carbamate] yielded an inhibition of growth at 20 ppm in assay [1] of at least 80%. For the same molecule, the pest or weed control at 200 ppm in assay [2] was at least 80%.

In the case of `COC(=O)Nc1ccc(-c2cnc3c(C)cc(C(=O)N(C)c4cccc5c4OCC5)cn23)cn1` [Compound 1, methyl N-[5-[6-[2,3-dihydrobenzofuran-7-yl(methyl)carbamoyl]-8-methyl-imidazo[1,2-a]pyridin-3-yl]-2-pyridyl]carbamate], the pest or weed control at 200 ppm in assay [3] is at least 80%.

`COC(=O)Nc1ccc(-c2cnc3ccc(C(=O)N(C)c4ccc(F)cc4F)cn23)cc1` [Compound 78, methyl N-[4-[6-[(2,4-difluorophenyl)-methyl-carbamoyl]imidazo[1,2-a]pyridin-3-yl]phenyl]carbamate] showed a pest or weed control at 200 ppm in assay [3] of at least 80%. Besides, the inhibition of growth at 20 ppm in assay [1] was at least 80%.

Molecule `COC(=O)Nc1ccc(-c2cnc3ccc(C(=O)N4CC(C)Cc5ccccc54)cn23)cn1` (stereo not drawn) [Compound 8, methyl N-[5-[6-(3-methyl-3,4-dihydro-2H-quinoline-1-carbonyl)imidazo[1,2-a]pyridin-3-yl]-2-pyridyl]carbamate] came in with an inhibition of growth at 20 ppm in assay [1] of at least 80%.

For `COC(=O)Nc1ccc(-c2cnc3ccc(C(=O)N4CCCc5c4ccc(C)c5F)cn23)cn1` [Compound 28, methyl N-[5-[6-(5-fluoro-6-methyl-3,4-dihydro-2H-quinoline-1-carbonyl)imidazo[1,2-a]pyridin-3-yl]-2-pyridyl]carbamate], the inhibition of growth at 20 ppm in assay [1] is at least 80%.

With `COC(=O)Nc1ccc(-c2cnc3ccc(C(=O)N4CC(OC)Cc5ccccc54)cn23)cn1` (stereo not drawn) [Compound 32, methyl N-[5-[6-(3-methoxy-3,4-dihydro-2H-quinoline-1-carbonyl)imidazo[1,2-a]pyridin-3-yl]-2-pyridyl]carbamate], the inhibition of growth at 20 ppm in assay [1] is at least 80%. For the same molecule, the pest or weed control at 200 ppm in assay [2] was at least 80%.

For `COC(=O)Nc1ccc(-c2cnc3ccc(C(=O)N(C)c4cc(Cl)ccc4OC)cn23)cn1` [Compound 61, methyl N-[5-[6-[(5-chloro-2-methoxy-phenyl)-methyl-carbamoyl]imidazo[1,2-a]pyridin-3-yl]-2-pyridyl]carbamate], the inhibition of growth at 20 ppm in assay [1] is at least 80%.

In assay [1], `COC(=O)Nc1ccc(-c2cnc3ccc(C(=O)N4CCCc5cc(OC)c(F)cc54)cn23)cn1` [Compound 63, methyl N-[5-[6-(7-fluoro-6-methoxy-3,4-dihydro-2H-quinoline-1-carbonyl)imidazo[1,2-a]pyridin-3-yl]-2-pyridyl]carbamate] yielded an inhibition of growth at 20 ppm of at least 80%.

In turn, `COC(=O)Nc1ccc(-c2cnc3ccc(C(=O)N4CC(O)Cc5ccccc54)cn23)cn1` (stereo not drawn) [Compound 43, methyl N-[5-[6-(3-hydroxy-3,4-dihydro-2H-quinoline-1-carbonyl)imidazo[1,2-a]pyridin-3-yl]-2-pyridyl]carbamate] displayed an inhibition of growth at 20 ppm in assay [1] of at least 80%. Further, the pest or weed control at 200 ppm in assay [2] was at least 80%.

With `COC(=O)Nc1ccc(-c2cnc3ccc(C(=O)N(C)c4cc(F)ccc4F)cn23)cn1` [Compound 54, methyl N-[5-[6-[(2,5-difluorophenyl)-methyl-carbamoyl]imidazo[1,2-a]pyridin-3-yl]-2-pyridyl]carbamate], the inhibition of growth at 20 ppm in assay [1] was at least 80%. For the same molecule, in assay [2], the pest or weed control at 200 ppm is at least 80%.

Take `COC(=O)Nc1ccc(-c2cnc3ccc(C(=O)N4CCCc5c(OC(F)F)cccc54)cn23)cn1` [Compound 58, methyl N-[5-[6-[5-(difluoromethoxy)-3,4-dihydro-2H-quinoline-1-carbonyl]imidazo[1,2-a]pyridin-3-yl]-2-pyridyl]carbamate]: in assay [1], the inhibition of growth at 20 ppm was at least 80%.

For the molecule `COC(=O)Nc1ccc(-c2cnc3ccc(C(=O)N4CCCc5cc(Cl)cc(F)c54)cn23)cn1` [Compound 17, methyl N-[5-[6-(6-chloro-8-fluoro-3,4-dihydro-2H-quinoline-1-carbonyl)imidazo[1,2-a]pyridin-3-yl]-2-pyridyl]carbamate], in assay [1], the inhibition of growth at 20 ppm was at least 80%. Moreover, the pest or weed control at 200 ppm in assay [2] was at least 80%.

For `COC(=O)Nc1ccc(-c2cnc3ccc(C(=O)N4c5ccccc5CCC4C)cn23)cn1` (stereo not drawn) [Compound 14, methyl N-[5-[6-(2-methyl-3,4-dihydro-2H-quinoline-1-carbonyl)imidazo[1,2-a]pyridin-3-yl]-2-pyridyl]carbamate], the inhibition of growth at 20 ppm in assay [1] was at least 80%.

Consider `COC(=O)Nc1ccc(-c2cnc3ccc(C(=O)N4CCCc5c4ccc(F)c5OC)cn23)cn1` [Compound 62, methyl N-[5-[6-(6-fluoro-5-methoxy-3,4-dihydro-2H-quinoline-1-carbonyl)imidazo[1,2-a]pyridin-3-yl]-2-pyridyl]carbamate], for which the inhibition of growth at 20 ppm in assay [1] is at least 80%. For the same molecule, in assay [2], the pest or weed control at 200 ppm is at least 80%.

On to `COC(=O)Nc1ccc(-c2cnc3ccc(C(=O)N(C)c4ccccc4C(=O)OC)cn23)cn1` [Compound 46, methyl 2-[[3-[6-(methoxycarbonylamino)-3-pyridyl]imidazo[1,2-a]pyridine-6-carbonyl]-methyl-amino]benzoate], for which, in assay [1], the inhibition of growth at 20 ppm is at least 80%. For the same molecule, the pest or weed control at 200 ppm in assay [2] is at least 80%.

Molecule `COC(=O)Nc1ccc(-c2cnc3ccc(C(=O)N(C)c4cccc(F)c4OC)cn23)cn1` [Compound 12, methyl N-[5-[6-[(3-fluoro-2-methoxy-phenyl)-methyl-carbamoyl]imidazo[1,2-a]pyridin-3-yl]-2-pyridyl]carbamate] had an inhibition of growth at 20 ppm in assay [1] of at least 80%. In addition, in assay [2], the pest or weed control at 200 ppm is at least 80%.

In turn, `COC(=O)Nc1ccc(-c2cnc3ccc(C(=O)N(C)c4ccccc4OC)cn23)cn1` [Compound 60, methyl N-[5-[6-[(2-methoxyphenyl)-methyl-carbamoyl]imidazo[1,2-a]pyridin-3-yl]-2-pyridyl]carbamate] had an inhibition of growth at 20 ppm in assay [1] of at least 80%.

In turn, `COC(=O)Nc1ccc(-c2cnc3ccc(C(=O)N(C)c4cccc(Cl)c4Cl)cn23)cn1` [Compound 39, methyl N-[5-[6-[(2,3-dichlorophenyl)-methyl-carbamoyl]imidazo[1,2-a]pyridin-3-yl]-2-pyridyl]carbamate] returned a pest or weed control at 200 ppm in assay [3] of at least 80%.

For `COC(=O)Nc1ccc(-c2cnc3ccc(C(=O)N4CCCc5c(C)cccc54)cn23)cn1` [Compound 27, methyl N-[5-[6-(5-methyl-3,4-dihydro-2H-quinoline-1-carbonyl)imidazo[1,2-a]pyridin-3-yl]-2-pyridyl]carbamate], in assay [1], the inhibition of growth at 20 ppm was at least 80%. The pest or weed control at 200 ppm in assay [2] is at least 80%.

With `COC(=O)Nc1ccc(-c2cnc3ccc(C(=O)N4CCCc5ccc(OC)cc54)cn23)cn1` [Compound 56, methyl N-[5-[6-(7-methoxy-3,4-dihydro-2H-quinoline-1-carbonyl)imidazo[1,2-a]pyridin-3-yl]-2-pyridyl]carbamate], the inhibition of growth at 20 ppm in assay [1] is at least 80%.

`COC(=O)Nc1ccc(-c2cnc3ccc(C(=O)N(C)c4ccc(Cl)cc4F)cn23)cn1` [Compound 53, methyl N-[5-[6-[(4-chloro-2-fluoro-phenyl)-methyl-carbamoyl]imidazo[1,2-a]pyridin-3-yl]-2-pyridyl]carbamate] displayed an inhibition of growth at 20 ppm in assay [1] of at least 80%.

The molecule `COC(=O)Nc1ccc(-c2cnc3ccc(C(=O)N4CCCc5c(F)cccc54)cn23)cn1` [Compound 13, methyl N-[5-[6-(5-fluoro-3,4-dihydro-2H-quinoline-1-carbonyl)imidazo[1,2-a]pyridin-3-yl]-2-pyridyl]carbamate] displayed an inhibition of growth at 20 ppm in assay [1] of at least 80%.

In assay [1], `COC(=O)Nc1ccc(-c2cnc3ccc(C(=O)N4CCCc5cc(Cl)ccc54)cn23)cn1` [Compound 48, methyl N-[5-[6-(6-chloro-3,4-dihydro-2H-quinoline-1-carbonyl)imidazo[1,2-a]pyridin-3-yl]-2-pyridyl]carbamate] displayed an inhibition of growth at 20 ppm of at least 80%.

In assay [1], `COC(=O)Nc1ccc(-c2cnc3c(C)cc(C(=O)N4CCOc5cc(F)ccc54)cn23)cn1` [Compound 5, methyl N-[5-[6-(7-fluoro-2,3-dihydro-1,4-benzoxazine-4-carbonyl)-8-methyl-imidazo[1,2-a]pyridin-3-yl]-2-pyridyl]carbamate] came in with an inhibition of growth at 20 ppm of at least 80%. For the same molecule, in assay [2], the pest or weed control at 200 ppm was at least 80%.

Molecule `COC(=O)Nc1ccc(-c2cnc3ccc(C(=O)N4CCCc5cc(F)c(F)cc54)cn23)cn1` [Compound 26, methyl N-[5-[6-(6,7-difluoro-3,4-dihydro-2H-quinoline-1-carbonyl)imidazo[1,2-a]pyridin-3-yl]-2-pyridyl]carbamate] came in with an inhibition of growth at 20 ppm in assay [1] of at least 80%.

In assay [1], `COC(=O)Nc1ccc(-c2cnc3ccc(C(=O)N(C)c4ccc(Cl)cn4)cn23)cn1` [Compound 68, methyl N-[5-[6-[(5-chloro-2-pyridyl)-methyl-carbamoyl]imidazo[1,2-a]pyridin-3-yl]-2-pyridyl]carbamate] came in with an inhibition of growth at 20 ppm of at least 80%.

In the case of `CCN(C(=O)c1ccc2ncc(-c3ccc(NC(=O)OC)nc3)n2c1)c1ccccc1C(=O)OC` [Compound 59, methyl 2-[ethyl-[3-[6-(methoxycarbonylamino)-3-pyridyl]imidazo[1,2-a]pyridine-6-carbonyl]amino]benzoate], the pest or weed control at 200 ppm in assay [2] is at least 80%.
